What was measured:
Helicobacter pylori [1] = test: Activity at Helicobacter pylori beta-carbonic anhydrase by spectrophotometry at pH 8.3
Brucella suis [2] = test: Ratio of kcat to Km for Brucella suis carbonic anhydrase I
Helicobacter pylori [3] = test: Ratio of kcat to Km for Helicobacter pylori beta-carbonic anhydrase
Brucella suis [4] = test system: Brucella suis
Brucella suis [5] = test: Ratio of kcat to Km for Brucella suis carbonic anhydrase II
Brucella suis [6] = test system: Brucella suis; remark: listed apart in the source
O=C=O [7] = test: Activity at human carbonic anhydrase II by spectrophotometry at pH 7.5
O=C=O [8] = test: Ratio of kcat to Km for human carbonic anhydrase II
O=C=O [9] = test: Ratio of kcat to Km for human carbonic anhydrase I
O=C=O [10] = settings: Homo sapiens

Sequence of Carbonic anhydrase 1 (Homo sapiens), P00915 (P00915 whole entry): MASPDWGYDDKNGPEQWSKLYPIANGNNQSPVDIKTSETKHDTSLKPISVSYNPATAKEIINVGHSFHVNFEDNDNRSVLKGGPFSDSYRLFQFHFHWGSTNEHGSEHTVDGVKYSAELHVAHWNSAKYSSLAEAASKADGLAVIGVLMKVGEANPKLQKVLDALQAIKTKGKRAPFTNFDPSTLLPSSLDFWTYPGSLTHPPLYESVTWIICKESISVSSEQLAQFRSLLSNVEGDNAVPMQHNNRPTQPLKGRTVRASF

Compound: O=C=O
- kcat (Helicobacter pylori [1]): 7.1 ×10⁵ /s
- kcat/Km (Brucella suis [2]): 3.9 ×10⁷ /M/s
- kcat/Km (Helicobacter pylori [3]): 4.8 ×10⁷ /M/s
- kcat (Brucella suis [4]): 1.1 ×10⁶ /s
- kcat/Km (Brucella suis [5]): 8.9 ×10⁷ /M/s
- kcat (Brucella suis [6]): 6.4 ×10⁵ /s

Compound: Carbonic anhydrase 2 (Homo sapiens) (from UniProt P00918)
- kcat (O=C=O [7]): 1.4 ×10⁶ /s
- kcat/Km (O=C=O [8]): 1.5 ×10⁸ /M/s

Compound: Carbonic anhydrase 1 (Homo sapiens), P00915
- kcat/Km (O=C=O [9]): 5 ×10⁷ /M/s
- kcat (O=C=O [10]): 2 ×10⁵ /s
